In brackets after ≈: the same amount, converted by molar mass. Where two headings read alike, the source gives them in different places.
Legend:
[1] = test system: regional myocardial ischemia and reperfusion; assay: Rat model of regional myocardial ischemia and reperfusion (LAD-occlusion); type: in vivo, Male Wistar rats; details: LAD-occlusion 25 min, reperfusion 2 h, bolus 10 mg/kg + infusion 96. mg/kg/h from 30 min before occlusion, mean±SEM, n=12
Method: The aim of this study was to investigate whether ranolazine exerts beneficial effects in a rat model of regional myocardial ischemia and reperfusion. Methods: Male Wistar rats were subjected to no LAD-occlusion (sham) or LAD-occlusion (25 min) and reperfusion (2 h). Saline (bolus: 2.4 mL/kg+infusion: 24. mL/kg/h) or ranolazine (bolus: 10 mg/kg +infusion; 96. mg/kg/h) were infused 30 min before LAD-occlusion and throughout the experiment. At the end of the experiment area at risk (AR, % of left ventricle), infarct size (IS, % of AR), and plasma cardiac troponin T (cTnT, ng/mL) were determined. The following groups were studied: Group 1. sham saline (n=4), Group 2. saline control (n=12), Group 3. ranolazine (n=12).

[2] = Peak and trough ranolazine plasma concentrations, IR regimens (Example 3); type: in vivo; details: human, oral
Method: In this Example, the safety and anti-ischemic effects of high plasma ranolazine levels in a large group of angina patients was evaluated and the duration of any effects during steady-state dosing with bid and tid regimens was assessed. In this Example, patients with chronic stable angina pectoris who were responsive to conventional antianginal drugs were treated with 3 ranolazine.2HCl dosing regimens: 267 mg tid, 400 mg bid and 400 mg tid IR Formulations of Example 1. Exercise testing parameters and ranolazine free base concentrations were determined at peak and trough plasma levels.
After each 1 week period, patients returned to the exercise laboratory in the morning, at least 1 hour after a light breakfast, for an ETT. This was designated the trough ETT; the trough ETTs were performed at the same time of day for each patient. After completing the trough ETT, the patient received the next scheduled blinded medication dose from the blister pack used that week. Another ETT was performed 1 hour after the administered dose. This was designated the peak ETT. Blood samples were obtained at trough (approximately 8 hours after dosing) and at peak (1 hour after dosing). Other standard laboratory tests were monitored regularly throughout the study.

[3] = Solubility of ranolazine in aqueous solutions by pH; type: physicochemical
[4] = test system: patients with stable angina; assay: MARISA exercise testing (modified Bruce protocol), sustained release ranolazine; type: in vivo, human
Method: (§1) is the first study of sustained release ranolazine (SR) in stable angina. Methods: Patients withdrawn from other anti-anginal drugs with reproducible angina-limited exercise duration and ≧1 mm ST depression were randomized to Ran (500 mg bid, 1000 mg bit and 1500 mg bid) and matching placebo (Pbo) in a double-blind, four-period, Latin square crossover design. Exercise testing with a modified Bruce protocol was performed at both trough (12 hr after dosing) and peak (4 hr after dosing). Results: 49 centers in the USA, Czech Republic, Poland and Canada randomized 191 patients. 168 completed all 4 double-blind treatment periods; 7 more completed 3 of 4 periods.

[5] = MARISA ranolazine plasma concentration; type: in vivo; details: human, oral; for concentration at 4 h: read-out: Ranolazine Plasma Concentration, Peak, mean (SD); for concentration at 12 h: read-out: Ranolazine Plasma Concentration, Trough, mean (SD)
Method: as §1, with “Methods:” for “is the first study of sustained release ranolazine (SR) in stable angina. Methods:”
Results: Ran improved exercise duration times in comparison to the placebo.

[6] = Solution pH 7.59 (unbuffered water)

With `COc1ccccc1OCC(O)CN1CCN(CC(=O)Nc2c(C)cccc2C)CC1` (racemic) [Ranolazine, (±)-N-(2,6-dimethylphenyl)-4-[2-hydroxy-3-(2-methoxyphenoxy)propyl]-1-piperazine-acetamide] the “area at risk (AR)” value [1] was 48±1 % of left ventricle, the “infarct size (IS)” value [1] was 41±4 % of AR and the “plasma cardiac troponin T (cTnT)” value [1] was 12 ± 2 ng/mL. It also gave a concentration at 1 h ([2]; female, 267 mg, Females, IR 267 mg tid, read-out: Ranolazine Plasma Concentration, Peak, mean (SD)) of 1590 ng/mL, a concentration at 8 h ([2]; female, 267 mg, Females, IR 267 mg tid, read-out: Ranolazine Plasma Concentration, Trough, mean (SD)) of 316 ng/mL and a concentration at 1 h ([2]; female, 400 mg, Females, IR 400 mg bid, read-out: Ranolazine Plasma Concentration, Peak, mean (SD)) of 2170 ng/mL. For the same compound, the concentration at 8 h ([2]; female, 400 mg, Females, IR 400 mg bid, read-out: Ranolazine Plasma Concentration, Trough, mean (SD)) was 235 ng/mL, the concentration at 1 h ([2]; female, 400 mg, Females, IR 400 mg tid, read-out: Ranolazine Plasma Concentration, Peak, mean (SD)) was 2650 ng/mL and the concentration at 8 h ([2]; female, 400 mg, Females, IR 400 mg tid, read-out: Ranolazine Plasma Concentration, Trough, mean (SD)) was 505 ng/mL. It also gave a concentration at 1 h ([2]; 267 mg, All Patients, IR 267 mg tid, read-out: Ranolazine Plasma Concentration, Peak, mean (SD)) of 1350 ng/mL, a concentration at 8 h ([2]; 267 mg, All Patients, IR 267 mg tid, read-out: Ranolazine Plasma Concentration, Trough, mean (SD)) of 316 ng/mL and a concentration at 1 h ([2]; 400 mg, All Patients, IR 400 mg bid, read-out: Ranolazine Plasma Concentration, Peak, mean (SD)) of 1880 ng/mL. The concentration at 8 h ([2]; 400 mg, All Patients, IR 400 mg bid, read-out: Ranolazine Plasma Concentration, Trough, mean (SD)) was 235 ng/mL, the concentration at 1 h ([2]; 400 mg, All Patients, IR 400 mg tid, read-out: Ranolazine Plasma Concentration, Peak, mean (SD)) was 2130 ng/mL and the concentration at 8 h ([2]; 400 mg, All Patients, IR 400 mg tid, read-out: Ranolazine Plasma Concentration, Trough, mean (SD)) was 514 ng/mL. The concentration at 8 h ([2]; across the 3 IR dosing regimens, read-out: Mean trough ranolazine plasma concentrations) was 235 to 514 ng/mL, the concentration at 1 h ([2]; across the 3 IR dosing regimens, read-out: plasma mean peak concentrations, ranolazine free base) was 1350 to 2130 ng/mL and the concentration at 1 h ([2]; male, 267 mg, Males, IR 267 mg tid, read-out: Ranolazine Plasma Concentration, Peak, mean (SD)) was 1260 ng/mL. The concentration at 8 h ([2]; male, 267 mg, Males, IR 267 mg tid, read-out: Ranolazine Plasma Concentration, Trough, mean (SD)) was 316 ng/mL, the concentration at 1 h ([2]; male, 400 mg, Males, IR 400 mg bid, read-out: Ranolazine Plasma Concentration, Peak, mean (SD)) was 1760 ng/mL and the concentration at 8 h ([2]; male, 400 mg, Males, IR 400 mg bid, read-out: Ranolazine Plasma Concentration, Trough, mean (SD)) was 235 ng/mL. The concentration at 1 h ([2]; male, 400 mg, Males, IR 400 mg tid, read-out: Ranolazine Plasma Concentration, Peak, mean (SD)) was 1920 ng/mL, the concentration at 8 h ([2]; male, 400 mg, Males, IR 400 mg tid, read-out: Ranolazine Plasma Concentration, Trough, mean (SD)) was 518 ng/mL and the “USP Solubility Class” value ([3]; Solution pH 4.81) was “Freely soluble”. For the same compound, the “USP Solubility Class” value ([3]; Solution pH 4.89) was “Soluble”, the “USP Solubility Class” value ([3]; Solution pH 4.90) was “Soluble” and the “USP Solubility Class” value ([3]; Solution pH 5.04) was “Soluble”. For the same compound, the “USP Solubility Class” value ([3]; Solution pH 5.35) was “Sparingly soluble”, the “USP Solubility Class” value ([3]; Solution pH 5.82) was “Slightly soluble” and the “USP Solubility Class” value ([3]; Solution pH 6.46) was “Slightly soluble”. For the same compound, the “USP Solubility Class” value ([3]; Solution pH 6.73) was “Very slightly soluble”, the “USP Solubility Class” value ([3]; Solution pH 7.08) was “Very slightly soluble” and the “USP Solubility Class” value [3, 6] was “Very slightly soluble”. For the same compound, the solubility [3, 6] was 240 µg/mL (≈ 0.561 mM), the “USP Solubility Class” value ([3]; Solution pH 7.73) was “Very slightly soluble” and the “USP Solubility Class” value ([3]; Solution pH 12.66) was “Very slightly soluble”. It also gave a solubility ([3]; aqueous solution, aqueous buffer, Solution pH 4.81) of 161000 µg/mL (≈ 377 mM), a solubility ([3]; aqueous solution, aqueous buffer, Solution pH 4.89) of 73800 µg/mL (≈ 173 mM) and a solubility ([3]; aqueous solution, aqueous buffer, Solution pH 5.04) of 49400 µg/mL (≈ 116 mM). The solubility ([3]; aqueous solution, aqueous buffer, Solution pH 5.35) was 16700 µg/mL (≈ 39.1 mM), the solubility ([3]; aqueous solution, aqueous buffer, Solution pH 5.82) was 5480 µg/mL (≈ 12.8 mM) and the solubility ([3]; aqueous solution, aqueous buffer, Solution pH 6.46) was 1630 µg/mL (≈ 3.81 mM). It also gave a solubility ([3]; aqueous solution, aqueous buffer, Solution pH 6.73) of 830 µg/mL (≈ 1.94 mM), a solubility ([3]; aqueous solution, aqueous buffer, Solution pH 7.08) of 390 µg/mL (≈ 0.912 mM) and a solubility ([3]; aqueous solution, aqueous buffer, Solution pH 7.73) of 170 µg/mL (≈ 0.398 mM). For the same compound, the solubility ([3]; aqueous solution, aqueous buffer, Solution pH 12.66) was 180 µg/mL (≈ 0.421 mM), the solubility ([3]; aqueous solution, pH 4.9, aqueous buffer, Solution pH 4.90) was 76400 µg/mL (≈ 179 mM) and the “Time to 1 mm ST Depression” value ([4]; SR 500 mg bid, peak) was 479 s. For the same compound, the “Time to Angina” value ([4]; SR 500 mg bid, peak) was 452 s, the “Exercise Duration” value ([4]; SR 500 mg bid, peak (4 hr after dosing)) was 532 s and the “Time to 1 mm ST Depression” value ([4]; SR 500 mg bid, trough) was 470 s. The “Time to Angina” value ([4]; SR 500 mg bid, trough) was 437 s, the “Exercise Duration” value ([4]; SR 500 mg bid, trough (12 hr after dosing)) was 533 s and the “Time to 1 mm ST Depression” value ([4]; SR 1000 mg bid, peak) was 502 s. For the same compound, the “Time to Angina” value ([4]; SR 1000 mg bid, peak) was 474 s, the “Exercise Duration” value ([4]; SR 1000 mg bid, peak (4 hr after dosing)) was 555 s and the “Time to 1 mm ST Depression” value ([4]; SR 1000 mg bid, trough) was 491 s. The “Time to Angina” value ([4]; SR 1000 mg bid, trough) was 457 s, the “Exercise Duration” value ([4]; SR 1000 mg bid, trough (12 hr after dosing)) was 545 s and the “Time to 1 mm ST Depression” value ([4]; SR 1500 mg bid, peak) was 508 s. The “Time to Angina” value ([4]; SR 1500 mg bid, peak) was 487 s, the “Exercise Duration” value ([4]; SR 1500 mg bid, peak (4 hr after dosing)) was 561 s and the “Time to 1 mm ST Depression” value ([4]; SR 1500 mg bid, trough) was 514 s. The “Time to Angina” value ([4]; SR 1500 mg bid, trough) was 472 s, the “Exercise Duration” value ([4]; SR 1500 mg bid, trough (12 hr after dosing)) was 559 s and the concentration at 4 h ([5]; 500 mg BID) was 1120 ng/mL. It also gave a concentration at 12 h ([5]; 500 mg BID) of 846 ng/mL, a concentration at 4 h ([5]; 1000 mg BID) of 2460 ng/mL and a concentration at 12 h ([5]; 1000 mg BID) of 1950 ng/mL. It also gave a concentration at 4 h ([5]; 1500 mg BID) of 3940 ng/mL and a concentration at 12 h ([5]; 1500 mg BID) of 3270 ng/mL.
